# Experimental data from PMC5618409, “Sequence Analysis, Kinetic Constants, and Anion Inhibition Profile of the Nacrein-Like Protein (CgiNAP2X1) from the Pacific Oyster Magallana gigas (Ex-Crassostrea gigas)” (Marine Drugs, 2017).
# Biological target: CgiNAP2X1 (Magallana gigas, UniProt A0A8W8INI3)
# Assay: stopped-flow CO2 hydration assay
# Assay type: biochemical
# Conditions: not given
# Sequence of CgiNAP2X1 (A0A8W8INI3 23-318 limits assumed): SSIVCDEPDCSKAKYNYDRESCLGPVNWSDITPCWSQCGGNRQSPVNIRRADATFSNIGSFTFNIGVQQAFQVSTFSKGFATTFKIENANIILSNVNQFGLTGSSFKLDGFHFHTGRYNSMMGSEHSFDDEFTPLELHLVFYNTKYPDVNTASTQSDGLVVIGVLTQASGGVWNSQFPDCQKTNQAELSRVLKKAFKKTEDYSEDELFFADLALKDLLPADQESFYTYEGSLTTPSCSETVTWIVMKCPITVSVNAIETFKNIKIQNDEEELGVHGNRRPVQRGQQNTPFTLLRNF
row,Compound,Ki [mM]
1,O=S(=O)(O)C(F)(F)F [CF3SO3^−],8.68
2,N#CO [CNO^−],3.11
3,Cl [Cl^−],10.8
4,S [HS^−],8.19
5,I [I^−],8.86
6,O=NO [NO2^−],7.14
7,N#CS [SCN^−],5.88
8,N#C[SeH] [SeCN^−],8.21
9,[O]=[Sn]([OH])[OH] [SnO3^2−],3.47
10,OB(O)c1ccccc1 [phenylboronic acid],0.072

# Same assay, conditions: read-out: KIs [mM] ^2 / CgiNAP2X1
row,Compound,Ki [mM]
1,NS(=O)(=O)O [sulfamate],0.073
2,NS(N)(=O)=O [sulfamide],0.076
